Patent US10106491B2, “Substituted biaryl alkyl amides” (BioTheryX, Inc., priority 2011, dated 2018)

Assays:
hCdc34 = target: T1, hCdc34 (Homo sapiens, UniProt P49427); settings: Ceccarelli et al., Cell 145:1075-1087, 2011; cited from earlier work
T1 sequence (P49427 1-236): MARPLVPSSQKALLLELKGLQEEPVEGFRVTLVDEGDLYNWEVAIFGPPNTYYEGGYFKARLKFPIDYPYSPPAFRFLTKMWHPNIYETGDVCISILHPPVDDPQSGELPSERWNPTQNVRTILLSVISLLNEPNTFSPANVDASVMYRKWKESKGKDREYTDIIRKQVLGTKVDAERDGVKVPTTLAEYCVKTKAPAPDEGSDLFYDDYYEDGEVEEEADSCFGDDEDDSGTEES

[1] = system: MDA-MB-468-NFkB-Luc2p cell line; assay: TNF-α induced NFkB reporter assay (luciferase); assay type: cell-based; settings: 1 h before 10 ng/ml TNF-α for 6 h, FIG. 3; for result in TNF-α induced NFkB reporter assay: tested at 20 μM and 5 μM
Experimental: The effects of the compounds described herein on the activation of TNF-mediated pathways were assessed using an MDA-MB-468NFkB-Luc2p reporter cell line (FIG. 3). To construct this cell line, MDA-MB-468 cells were transfected with pGL4.32[luc2P/NF-kB-RE/Hygro] vector (Promega) using TransFast transfection reagent (Promega) according to manufacturer's standard protocol. Briefly, cells were grown in RPMI supplemented with 10% FBS and plated onto sterile 6-well plates (Nunc). When cells became ˜75% confluent, media in each well was removed and replaced with 1 mL RPMI (no FBS) containing […] vector and TransFast for 1 h at 37° C. 2 mL of RPMI with FBS is then added to the well and after 24 h, 500 ug/ml of hygromycin was added for selection to generate a stable reporter cell line.
Stable MDA-MB-468-NFkB-Luc2p cells were plated onto optical-bottom, white wall 96-well plates at 10,000 cells per well and allowed to attach overnight. Compounds B1 through B14 were added at 20 μM and 5 μM respectively for 1 h prior to treatment with 10 ng/ml of recombinant human TNF-α for 6 h. Luciferase signal was determined using the Luciferase Assay System (Promega) and a luminometer.

[2] = system: MDA-MB-468 (breast cancer) cell line; assay: MDA-MB-468 proliferation assay (MTS); assay type: cell-based; settings: for growth rate: 72 h, DMSO control = 100%
Experimental: (§1) Proliferation assays were conducted to assess the effects of the compounds described herein on the growth rate of neoplastic cells. For each of the proliferation assays described herein, SK-MEL-28, MDA-MB-468 or Panc-1 cells were grown in RPMI supplemented with 10% FBS and plated onto sterile 96-well tissue culture plates at 20,000 cells per well and allowed to attach overnight. Compounds B1 through B14 were added at 20 μM and 10 μM respectively in the SK-MEL-28 proliferation assay (FIG. 1). Compounds B3, B5, B7, B11 and B12 were added at 20 μM and 10 μM respectively for the MDA-MB-468 (FIG. 2A) and Panc-1 proliferation assays (FIG. 2B). Plates were incubated for 72 h (37° C., 5% CO2). Percent viability compared to DMSO control was determined using an MTS assay (CellTiter 96 Aqueous, Promega) according to the manufacturer's standard protocol. The standard used in the SK-MEL-28 assay is MG132, a proteasome inhibitor, at 10 uM concentration. It was used as a positive control for cell killing. All the assays are referenced to DMSO as the control at 100% proliferation.

[3] = system: Panc-1 (pancreatic cancer) cell line; assay: Panc-1 proliferation assay (MTS); assay type: cell-based; settings: for growth rate: 72 h, DMSO control = 100%
Experimental: as §1

[4] = system: SK-MEL-28 (metastatic melanoma) cell line; assay: SK-MEL-28 proliferation assay (MTS, percent viability vs DMSO); assay type: cell-based; settings: 72 h, FIG. 1
Experimental: as §1

[5] = SK-MEL-28, tested at 20 μM and 10 μM

| SMILES | result in TNF-α induced NFkB reporter assay [1] | growth rate ([2]; MDA-MB-468, 20 μM) [%] | inhibitory effect on proliferation [4, 5] | further results |
| --- | --- | --- | --- | --- |
| COCC(=O)N[C@@H](Cc1ccc(-c2cc(Cl)cc(Cl)c2)cc1)[C@H](O)[C@@H](O)C(=O)O [CC0651] |  |  |  | inhibition of hCdc34 (hCdc34): inhibits |
| CCOCC(=O)NC(Cc1ccc(-c2cc(Cl)cc(Cl)c2)cc1)C(O)C(O)C(=O)OCC (centres unmarked) [Compound B1] | good results |  |  |  |
| CCOC(=O)C(O)C(O)C(Cc1ccc(-c2cc(Cl)cc(Cl)c2)cc1)NC(=O)CCl (centres unmarked) [Compound B3] |  | 5.5 | good inhibitory effect | growth rate ([2]; MDA-MB-468, 10 μM): 6.0%; inhibitory effect on proliferation ([2]; MDA-MB-468, at both concentrations (20 μM and 10 μM)): good inhibitory effect; growth rate ([3]; Panc-1, 10 μM): 4.8%; growth rate ([3]; Panc-1, 20 μM): 5.2%; inhibitory effect on proliferation ([3]; Panc-1, at both concentrations (20 μM and 10 μM)): good inhibitory effect |
| CCOC(=O)C(O)C(O)C(Cc1ccc(-c2cc(Cl)cc(Cl)c2)cc1)NC(=O)[C@H]1CCCO1 (some centres unmarked) [Compound B4] | good results |  |  |  |
| CCOC(=O)C(O)C(O)C(Cc1ccc(-c2cc(Cl)cc(Cl)c2)cc1)NC(=O)[C@@H]1CCCN1C(=O)OC(C)(C)C (some centres unmarked) [Compound B5] | good results | 33.5 | good inhibitory effect |  |
| CCOC(=O)C(O)C(O)C(Cc1ccc(-c2cc(Cl)cc(Cl)c2)cc1)NC(=O)CNC(=O)OC(C)(C)C (centres unmarked) [Compound B7] |  |  | good inhibitory effect |  |
| CCOC(=O)C(O)C(O)C(Cc1ccc(-c2cc(Cl)cc(Cl)c2)cc1)NC(=O)CN (centres unmarked) [Compound B11] |  |  | good inhibitory effect |  |
| CCOC(=O)C(O)C(O)C(Cc1ccc(-c2cc(Cl)cc(Cl)c2)cc1)NC(=O)[C@H](C)N (some centres unmarked) [Compound B12] |  | 11.0 |  | inhibitory effect on TNF-α induced NFkB luciferase signal ([1]; 20 μM): excellent inhibitory effect; growth rate ([3]; Panc-1, 20 μM): 24.4%; fold more effective than the control ([4]; SK-MEL-28, 20 μM): about 20 fold; inhibitory effect on proliferation ([4]; SK-MEL-28, 20 μM): excellent inhibitory effect |
